Tests used:
Format in all cases: biochemical
human plasmin [1] = biological target: T1, human plasmin (Homo sapiens, UniProt P00747); assay: Antiplasmin activity: inhibition of fibrin decomposition; conditions: Table 2; concentration at which fibrin dissolution time is extended twice, pH 7.4, 37°C; read-out: Plasmin Fibrin (concentration I₅₀)
Protocol: (i) Determination of inhibition activity on fibrin decomposition
An inhibitor sample is dissolved in a 0.l8 M borate-physiological salt buffer solution (pH = 7.4) to bring the total volume to 600 µl. To this buffer solution, 200 µl of a 0.2% bovine fibrinogen, l00 µl of a 0.3 casein unit/ml human plasmin solution, and l00 µl of a 50 unit/ml bovine thrombin solution, all dissolved in the above-mentioned buffer, are added at a temperature of 37°C in a constant temperature bath. The dissolution time of the fibrin mass formed above is then determined.

bovine trypsin = biological target: T2, bovine trypsin (Bos taurus, UniProt P00760); assay: Antitrypsin activity: inhibition of S-2238 decomposition; conditions: Table 2; substrate S-2238, pH 8.1, 37°C; read-out: Trypsin S-2238 (concentration I₅₀)
T2 sequence (P00760 24-246): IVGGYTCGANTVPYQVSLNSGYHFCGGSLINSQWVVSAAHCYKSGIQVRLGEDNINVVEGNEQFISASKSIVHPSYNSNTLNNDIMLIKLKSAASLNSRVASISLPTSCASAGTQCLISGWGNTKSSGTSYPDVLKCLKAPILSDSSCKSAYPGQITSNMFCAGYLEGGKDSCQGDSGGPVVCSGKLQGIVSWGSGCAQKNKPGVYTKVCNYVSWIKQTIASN
Protocol: Determination of inhibition activity against S-2238 decomposition An inhibitor sample is dissolved in a 0.05 M Tris-imidazole buffer solution (pH = 8.l) and l25 µl of a l mM S-2238 solution is added to bring the total volume to l.20 ml. The mixture is incubated at a temperature of 37°C for 5 minutes in a constant temperature bath. To this mixture, 0.05 ml of bovine trypsin is added and the absorbance, at 405 nm, of the p-nitroaniline formed per minute is determined at a temperature of 37°C by using the so-called initial velocity method. Thus, the concentration I₅₀ (µmol) of the inhibitor sample, at which the absorbance is one half (i.e., l/2) of that obtained in the absence of the inhibitor sample, is determined.

human plasmin [2] = biological target: T1, human plasmin; assay: Antiplasmin activity: inhibition of S-2251 decomposition; conditions: Table 2; substrate S-2251, pH 7.4, 37°C; read-out: Plasmin S-2251 (concentration I₅₀)
Protocol: (ii) Determination of inhibition activity on S-225l decomposition
An inhibitor sample is dissolved in a 0.05 M Tris-hydrochloric acid buffer solution (pH = 7.4) to bring the total volume to 400 µl. To this solution, 50 µl of a 3 mM S-225l solution is added and the mixture is incubated at a temperature of 37°C for 5 minutes in a constant temperature bath. Then 50 µl of a 0.2 casein unit/ml human plasmin is added and the mixture is incubated at a temperature of 37°C for 4 minutes. Thereafter, the reaction is stopped by adding 50 µl of 50% acetic acid.
Thus, the concentration I₅₀ (µmol) of the inhibitor sample, at which the absorbance is one half (i.e., l/2) of that obtained in the absence of the inhibitor, is determined.

bovine thrombin [3] = biological target: T3, bovine thrombin (Bos taurus, UniProt P00735); assay: Antithrombin activity: inhibition of S-2238 decomposition
Protocol: (ii) Determination of inhibition activity on S-2238 decomposition
An inhibitor sample is dissolved in a 0.05 M Tris-hydrochloric acid buffer solution (pH = 8.3) to bring the a total volume to 400 µl. To this solution, 50 µl of a 0.2 mM S-2238 solution is added and the mixture is incubated at a temperature of 37°C for 5 minutes in a constant temperature bath. Then 50 µl of a 0.2 unit/ml bovine thrombin solution is added thereto and the absorbance, at 405 nm, of the p-nitroaniline formed per minute is determined at a temperature of 37°C by using the so-called initial velocity method. Thus, the concentration I₅₀ (µmol) of the inhibitor sample, at which the absorbance is one half (i.e., l/2) of that obtained in the absence of the inhibitor sample, is determined.

bovine thrombin [4] = biological target: T3, bovine thrombin; assay: Antithrombin activity: inhibition of fibrin formation from fibrinogen
Protocol: (i) Determination of inhibition activity against fibrin formation
An inhibitor sample is dissolved in a 0.l8 M borate-physiological salt buffer solution (pH = 7.4) to bring the total volume to 500 µl. To this solution, 400 µl of a 0.2% bovine fibrinogen solution and l00 µl of a 4 unit/ml bovine thrombin solution are added at a temperature of 37°C in a constant temperature bath. Thus, a coagulation time is determined. The inhibitor concentration I₅₀ (µmol), at which the coagulation time obtained in the absence of the inhibitor is extended twice, is determined.

human urokinase = human urokinase (Homo sapiens, UniProt P00749); assay: Antiurokinase activity: inhibition of S-2444 decomposition; conditions: Table 2; substrate S-2444, pH 8.8, 37°C; read-out: Urokinase S-2444 (concentration I₅₀)
Protocol: Determination of inhibition activity for S-2444 decomposition
An inhibitor sample is dissolved in a 0.05 M Tris-hydrochloric acid buffer solution (pH = 8.8) to bring the total volume to 400 µl. To this solution, 50 µl of a l mM S-2444 solution is added and the mixture is incubated at a temperature of 37°C for 5 minutes in a constant temperature bath. Then 50 µl of a 500 unit/ml human urokinase is added and the mixture is incubated at a temperature of 37°C for 5 minutes. Thereafter, 50 µl of 50% acetic acid is added to terminate the reaction. The absorbance of the p-nitroaniline formed in the reaction mixture is measured at 405 nm. Thus, the concentration I₅₀ (µmol) of the inhibitor sample, at which the absorbance is one half (i.e., l/2) of that obtained in the absence of the inhibitor sample, is determined.

human plasma kallikrein = human plasma kallikrein (Homo sapiens, UniProt P03952); assay: Anti-plasma kallikrein activity: inhibition of S-2302 decomposition; conditions: Table 2; substrate S-2302, pH 7.8, 37°C; read-out: Plasma Kallikrein S-2302 (concentration I₅₀)
Sequence of human plasma kallikrein (P03952 391-638 limits assumed): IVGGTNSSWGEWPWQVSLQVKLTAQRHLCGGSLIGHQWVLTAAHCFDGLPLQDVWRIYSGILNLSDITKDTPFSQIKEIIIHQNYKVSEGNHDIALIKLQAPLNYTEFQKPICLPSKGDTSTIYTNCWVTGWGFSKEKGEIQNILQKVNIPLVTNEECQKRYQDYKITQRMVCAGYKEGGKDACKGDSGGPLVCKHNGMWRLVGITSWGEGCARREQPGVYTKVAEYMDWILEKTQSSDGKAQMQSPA
Sequence of human plasma kallikrein (P03952 20-390 partner limits assumed): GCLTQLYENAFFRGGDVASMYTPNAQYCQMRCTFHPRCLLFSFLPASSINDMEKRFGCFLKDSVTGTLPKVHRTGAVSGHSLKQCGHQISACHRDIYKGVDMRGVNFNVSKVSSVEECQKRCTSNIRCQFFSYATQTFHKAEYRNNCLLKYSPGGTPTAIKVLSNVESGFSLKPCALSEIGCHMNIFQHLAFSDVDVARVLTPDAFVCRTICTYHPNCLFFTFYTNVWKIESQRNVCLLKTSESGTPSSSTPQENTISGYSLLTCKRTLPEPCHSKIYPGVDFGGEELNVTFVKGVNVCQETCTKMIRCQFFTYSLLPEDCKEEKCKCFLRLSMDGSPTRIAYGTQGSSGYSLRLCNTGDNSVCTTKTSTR
Protocol: An inhibitor sample is dissolved in a 0.05 M Tris-hydrochloric acid buffer solution (pH = 7.8) to bring the total volume to 400 µl. […] Then, 50 µl of a 0.l2 unit/ml human plasma kallikrein is added and the mixture is incubated at a temperature of 37°C for 5 minutes. Thereafter, 50 µl of 50% acetic acid is added to terminate the reaction. […] Thus, the concentration I₅₀ (µmol) of the inhibitor sample, at which the absorbance is one half (i.e., l/2) of that obtained in the absence of the inhibitor sample, is determined.

T1 sequence (P00747 581-810 limits assumed): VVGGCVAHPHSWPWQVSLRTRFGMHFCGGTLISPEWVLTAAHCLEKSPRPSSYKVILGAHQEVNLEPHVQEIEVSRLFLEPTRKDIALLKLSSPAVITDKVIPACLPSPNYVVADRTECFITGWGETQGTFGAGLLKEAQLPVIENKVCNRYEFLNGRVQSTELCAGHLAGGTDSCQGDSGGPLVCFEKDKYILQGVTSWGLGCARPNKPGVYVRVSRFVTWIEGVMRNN
T1 sequence (P00747 97-580 partner limits assumed): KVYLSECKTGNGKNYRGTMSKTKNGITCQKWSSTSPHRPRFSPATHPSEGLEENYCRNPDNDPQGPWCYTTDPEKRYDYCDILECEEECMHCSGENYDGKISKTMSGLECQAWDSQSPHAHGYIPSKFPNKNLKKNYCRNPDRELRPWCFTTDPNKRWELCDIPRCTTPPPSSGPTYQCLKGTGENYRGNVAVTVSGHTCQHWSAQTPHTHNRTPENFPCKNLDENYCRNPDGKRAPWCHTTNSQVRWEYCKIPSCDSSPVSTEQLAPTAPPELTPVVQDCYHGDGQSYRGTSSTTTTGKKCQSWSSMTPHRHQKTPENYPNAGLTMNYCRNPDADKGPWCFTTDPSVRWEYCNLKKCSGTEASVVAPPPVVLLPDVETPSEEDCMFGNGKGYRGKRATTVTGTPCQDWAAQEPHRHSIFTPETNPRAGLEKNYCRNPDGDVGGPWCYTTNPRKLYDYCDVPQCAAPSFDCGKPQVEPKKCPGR

IC50 (human plasmin [1])	IC50 (bovine trypsin)	IC50 (human plasmin [2])	IC50 (bovine thrombin [3])	IC50 (bovine thrombin [4])	IC50 (human urokinase)	IC50 (human plasma kallikrein)	SMILES
> 100 µM	75 µM	120 µM	> 200 µM	> 100 µM			NCCCCC(=O)N[C@@H](Cc1ccccc1)C(=O)Nc1ccc(C(=O)c2ccccc2)cc1 [Compound No. 2, N-(5-aminovaleryl)-L-phenylalanine 4-benzoylanilide]
> 500 µM		> 500 µM	> 500 µM	> 500 µM	> 500 µM	> 500 µM	CCOC(=O)CC(O)CNC(=O)[C@H](Cc1ccccc1)NC(=O)CCCCCN (stereo partly drawn) [compound 5]
> 200 µM	14 µM	> 400 µM	330 µM	> 500 µM	190 µM	2.2 µM	CC(=O)c1ccc(NC(=O)[C@H](Cc2ccccc2)NC(=O)c2ccc(NC(=N)N)cc2)cc1 [compound 15]
> 1000 µM		> 1000 µM	> 1000 µM	> 1000 µM	> 1000 µM	> 1000 µM	COC(=O)[C@@H]1CCCN1C(=O)[C@H](Cc1ccccc1)NC(=O)c1ccc(NC(=N)N)cc1 [compound 22]

Reference: patent publication EP0298135A1, “Phenylalanine derivative and proteinase inhibitor” (Okamoto, Shosuke, priority 1987, dated 1989)
